Results as given in patent publication US10669272B2, “Substituted naphthyridinone compounds useful as T cell activators” (BRISTOL-MYERS SQUIBB COMPANY, priority 2018, dated 2020).
Counter-ions that a name gives are not always drawn. Like-named read-outs stand apart in the source and are kept apart here.

Key:
[1] = target: T1, human DGKα (Homo sapiens, UniProt P23743); assay: DGKα LIPGLO assay (extruded liposome substrate), in vitro DGK inhibition; type: biochemical; details: read-out: DGKa LIPGLO IC50
T1 construct: TVMV protease cleavage site (C); Hexa-His (C); made in house; host or cells: Sf9 insect cells (baculovirus, Bac-to-Bac)

[2] = test system: Human venous whole blood; assay: Human whole blood IFN-γ assay; type: cell-based; details: human whole blood, read-out: INFg Whole Blood Normalized Agonist EC50;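 further: blood from healthy donors exposed to compound for 1 h before stimulation with anti-CD3 and anti-CD28 at 1 µg/mL each, IFN-γ quantified in supernatant by AlphaLISA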
Protocol: Human Whole Blood IFN-γ Assay
Human venous whole blood (22.5 μL per well), obtained from healthy donors, was pre-treated with compounds for one hour at 37° C. in a humidified 95% air/5% CO2 incubator. The blood was stimulated with 2.5 μL anti-human CD3 and anti-CD28 mAb at a final concentration of 1 μg/mL each for 24 hours at 37° C. IFN-γ in the supernatants was measured using AlphLISA kit (Cat # AL217).

[3] = target: T2, human DGKζ (Homo sapiens, UniProt Q13574); assay: DGKζ LIPGLO assay (extruded liposome substrate), in vitro DGK inhibition; type: biochemical; details: read-out: DGKz LIPGLO IC50
T2 construct: TVMV protease cleavage site (C); Hexa-His (C); made in house; host or cells: Sf9 insect cells (baculovirus, Bac-to-Bac)

[4] = anti-CD3 plus anti-CD28, 24 hours, 3 μM reference compound = 100% activation
[5] = normalized to 3 μM reference compound with anti-CD3 plus anti-CD28 as 100% activation
[6] = Homo sapiens, 24 h, normalized to 3 μM reference compound with anti-CD3 plus anti-CD28 as 100% activation
[7] = Homo sapiens, 24 h, anti-CD3 plus anti-CD28, 24 hours, 3 μM reference compound = 100% activation

T2 sequence (Q13574 with tags, fused parts or gaps isoform Q13574-4): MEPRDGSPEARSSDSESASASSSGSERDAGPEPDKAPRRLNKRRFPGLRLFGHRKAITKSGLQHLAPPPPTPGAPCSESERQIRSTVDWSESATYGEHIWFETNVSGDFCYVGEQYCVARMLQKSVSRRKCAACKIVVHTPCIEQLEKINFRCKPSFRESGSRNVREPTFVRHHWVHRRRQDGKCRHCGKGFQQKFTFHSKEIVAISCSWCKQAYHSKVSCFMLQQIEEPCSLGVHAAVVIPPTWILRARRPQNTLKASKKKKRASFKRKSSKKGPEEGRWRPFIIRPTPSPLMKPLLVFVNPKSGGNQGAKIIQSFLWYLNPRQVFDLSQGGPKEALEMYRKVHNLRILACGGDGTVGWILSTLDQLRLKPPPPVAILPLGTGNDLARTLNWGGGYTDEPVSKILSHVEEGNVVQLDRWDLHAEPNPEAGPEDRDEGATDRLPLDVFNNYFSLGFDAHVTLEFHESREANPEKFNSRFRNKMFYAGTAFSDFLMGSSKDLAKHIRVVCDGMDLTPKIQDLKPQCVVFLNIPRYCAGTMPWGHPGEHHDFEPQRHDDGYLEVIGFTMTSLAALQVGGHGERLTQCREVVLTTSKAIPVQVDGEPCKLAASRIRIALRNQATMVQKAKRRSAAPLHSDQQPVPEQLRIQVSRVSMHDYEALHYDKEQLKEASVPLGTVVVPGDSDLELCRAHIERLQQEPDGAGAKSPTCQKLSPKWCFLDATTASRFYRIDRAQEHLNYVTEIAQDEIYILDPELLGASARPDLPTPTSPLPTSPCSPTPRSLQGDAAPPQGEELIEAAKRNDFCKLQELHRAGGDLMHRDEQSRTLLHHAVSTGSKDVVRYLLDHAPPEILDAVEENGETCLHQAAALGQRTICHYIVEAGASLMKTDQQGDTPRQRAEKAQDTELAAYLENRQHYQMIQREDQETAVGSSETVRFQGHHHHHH
T1 sequence (P23743 with tags, fused parts or gaps): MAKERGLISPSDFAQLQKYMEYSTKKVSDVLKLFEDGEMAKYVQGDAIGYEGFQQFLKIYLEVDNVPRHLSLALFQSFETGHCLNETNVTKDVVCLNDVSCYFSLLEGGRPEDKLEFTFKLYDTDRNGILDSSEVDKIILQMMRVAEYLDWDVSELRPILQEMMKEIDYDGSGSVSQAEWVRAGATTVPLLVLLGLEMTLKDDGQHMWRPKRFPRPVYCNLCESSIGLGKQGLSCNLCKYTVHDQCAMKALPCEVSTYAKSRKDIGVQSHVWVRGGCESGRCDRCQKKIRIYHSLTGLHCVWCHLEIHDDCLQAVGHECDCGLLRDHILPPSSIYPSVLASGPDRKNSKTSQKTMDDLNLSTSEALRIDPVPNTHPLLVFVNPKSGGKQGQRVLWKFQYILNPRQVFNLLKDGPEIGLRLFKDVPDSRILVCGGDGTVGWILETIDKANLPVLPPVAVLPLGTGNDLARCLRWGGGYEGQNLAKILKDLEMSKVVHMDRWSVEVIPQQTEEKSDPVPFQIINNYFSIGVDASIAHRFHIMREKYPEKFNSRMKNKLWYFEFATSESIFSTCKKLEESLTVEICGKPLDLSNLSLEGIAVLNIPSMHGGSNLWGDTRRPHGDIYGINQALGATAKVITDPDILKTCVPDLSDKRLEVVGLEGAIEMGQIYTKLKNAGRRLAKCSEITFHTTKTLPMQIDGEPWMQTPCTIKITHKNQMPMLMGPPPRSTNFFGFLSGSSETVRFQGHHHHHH

Row | Structure (SMILES) | IC50 ([1]; liposome (LIPGLO) assay) | EC50 [2, 5] | IC50 ([3]; liposome (LIPGLO) assay) | EC50 [2, 6] | further results
1 | C[C@@H]1CN(c2cc(=O)n(C)c3ccc(C#N)nc23)[C@@H](C)CN1C(c1ccc(F)cc1)c1nc(N2CCOCC2)no1 (stereo partly drawn) [Example 750] |  |  |  |  | IC50 ([1]; DGKα liposome (LIPGLO) assay): 480 nM; EC50 [2, 4]: 150 nM; IC50 ([3]; DGKζ liposome (LIPGLO) assay): 240 nM
2 | CCC(c1ccc(OC(F)(F)F)cc1)N1C[C@H](C)N(c2cc(=O)n(C)c3ccc(C#N)nc23)C[C@H]1CC (single isomer, unassigned) [Example 1199] | 20 nM | 34 nM | 37 nM |  | 
3 | CC(C)c1ccc(CN2C[C@H](C)N(c3cc(=O)n(C)c4ccc(C#N)nc34)C[C@H]2C)cc1 [Example 602] | 850 nM |  | 3700 nM | 1100 nM | 
4 | C[C@@H]1CN(c2cc(=O)n(C)c3ccc(C#N)nc23)[C@@H](C)CN1C(c1ccc(F)cc1)C(C)(C)O (single isomer, unassigned) [Example 1309] | 4600 nM | 7900 nM | 13000 nM |  | 
5 | CC[C@H]1CN(C(c2ccc(F)cc2)c2ccc(Cl)cc2)[C@H](C)CN1c1cc(=O)n(C)c2ccc(C#N)nc12 (stereo partly drawn) [Example 1127] | 680 nM |  | 2400 nM | 520 nM | 
6 | CC[C@@H]1CN(c2cc(=O)n(C)c3ccc(C#N)nc23)[C@@H](C)CN1C(C)c1ccc(Cl)cc1F (single isomer, unassigned) [Example 1352] | 120 nM |  | 16 nM | 28 nM | 
7 | C[C@@H]1CN(c2cc(=O)n(C)c3ccc(C#N)nc23)[C@@H](C)CN1Cc1ccc(F)c(OC(F)(F)F)c1 [Example 585] | 9300 nM |  | 1500 nM | 2100 nM | 
8 | CC[C@H]1CN(C(c2cccc(F)c2)c2ccc(F)cn2)[C@H](CC)CN1c1cc(=O)n(C)c2ccc(C#N)nc12 (single isomer, unassigned) [Example 1042] | 170 nM | 130 nM | 63 nM |  | 
9 | C[C@@H]1CN(c2cc(=O)n(C)c3ccc(C#N)nc23)[C@@H](C)CN1C(c1ccc(F)cc1)c1ncccn1 (stereo partly drawn) [Example 676] | 62 nM |  | 5400 nM | 1800 nM | 
10 | C[C@@H]1CN(c2cc(=O)n(C)c3ccc(C#N)nc23)[C@@H](C)CN1C(c1ccc(F)cc1)c1cnn(C)c1 (single isomer, unassigned) [Example 702] | 1300 nM | 4700 nM | 2900 nM |  | 
11 | Cc1ccc(C(c2cccc(F)n2)N2C[C@H](C)N(c3cc(=O)n(C)c4ccc(C#N)nc34)C[C@H]2C)cc1 (single isomer, unassigned) [Example 478] | 2100 nM |  | 2400 nM | 3800 nM | 
12 | Cc1ccc(F)cc1CN1CCN(c2c(C#N)c(=O)n(C)c3ccc(C#N)nc23)C[C@H]1C [Example 1001] |  |  |  |  | IC50 ([1]; DGKα liposome (LIPGLO) assay): 1500 nM; EC50 [2, 7]: 4700 nM; IC50 ([3]; DGKζ liposome (LIPGLO) assay): 4600 nM
13 | C[C@@H]1CN(c2cc(=O)n(C)c3ccc(C#N)nc23)[C@@H](C)CN1C(c1ccc(F)cc1)c1nc(C2CN(C)C2)no1 (single isomer, unassigned) [Example 1299] | 89000 nM | 15000 nM | 26000 nM |  | 
14 | C[C@@H]1CN(c2cc(=O)n(C)c3ccc(C#N)nc23)[C@@H](C)CN1C(c1ccc(Cl)cc1)c1nc(C2CC2)no1 (single isomer, unassigned) [Example 1286] | 38 nM | 270 nM | 100 nM |  | 
15 | Cc1ccc(C(c2ccc(F)cc2)N2C[C@H](C)N(c3c(F)c(=O)n(C)c4ccc(C#N)nc34)C[C@H]2C)cc1 (stereo partly drawn) [Example 335, 7-fluoro-8-((2S,5R)-4-((4-fluorophenyl)(p-tolyl)methyl)-2,5-dimethylpiperazin-1-yl)-5-methyl-6-oxo-5,6-dihydro-1,5-naphthyridine-2-carbonitrile] | 1200 nM | 1200 nM | 2500 nM |  | 
16 | CC[C@H]1CN(C(C)c2ccc(F)cc2F)[C@H](C)CN1c1cc(=O)n(C)c2ccc(C#N)nc12 (single isomer, unassigned) [Example 1138] | 980 nM | 3700 nM | 1400 nM |  | 
17 | COc1cc(F)c(CN2C[C@H](C)N(c3cc(=O)n(C)c4ccc(C#N)nc34)C[C@H]2C)c(F)c1 [Example 1276] | 71 nM |  | 240 nM | 490 nM | 
18 | Cc1ncc(C(c2ccc(F)cc2)N2C[C@H](C)N(c3cc(=O)n(C)c4ccc(C#N)nc34)C[C@H]2C)cn1 (single isomer, unassigned) [Example 406] | 2400 nM |  | 2800 nM | 11000 nM | 
19 | C[C@@H]1CN(c2c(C#N)c(=O)n(C)c3ccc(C#N)nc23)CCN1C(c1ccc(F)cc1)c1ncccc1F (single isomer, unassigned) [Example 891] |  |  |  |  | IC50 ([1]; DGKα liposome (LIPGLO) assay): 3100 nM; EC50 [2, 7]: 2800 nM; IC50 ([3]; DGKζ liposome (LIPGLO) assay): 3000 nM

Row | Structure (SMILES) | IC50 ([1]; liposome (LIPGLO) assay) | EC50 [2, 5] | IC50 ([3]; liposome (LIPGLO) assay) | EC50 [2, 6] | further results
20 | Cc1ccc(C(c2cccc(F)n2)N2C[C@H](C)N(c3cc(=O)n(C)c4ccc(C#N)nc34)C[C@H]2C)cc1 (single isomer, unassigned) [Example 479] | 910 nM | 2100 nM | 1900 nM |  | 
21 | C[C@@H]1CN(c2c(C#N)c(=O)n(C)c3ccc(C#N)nc23)[C@@H](C)CN1C(c1ccc(F)cc1)c1cc(C2CC2)on1 (single isomer, unassigned) [Example 868] |  |  |  |  | IC50 ([1]; DGKα liposome (LIPGLO) assay): 440 nM; EC50 [2, 7]: 2200 nM; IC50 ([3]; DGKζ liposome (LIPGLO) assay): 2400 nM
22 | C[C@@H]1CN(c2cc(=O)n(C)c3ccc(C#N)nc23)[C@@H](C)CN1Cc1ccc(Cl)cc1 [Example 604] | 310 nM |  | 2000 nM | 4800 nM | 
23 | CC(c1ccccc1C(F)(F)F)N1CCN(c2c(C#N)c(=O)n(C)c3ccc(C#N)nc23)C[C@H]1C (single isomer, unassigned) [Example 968] |  |  |  |  | IC50 ([1]; DGKα liposome (LIPGLO) assay): > 250000 nM; EC50 [2, 4]: 20000 nM; IC50 ([3]; DGKζ liposome (LIPGLO) assay): > 250000 nM
24 | CC[C@@H]1CN(c2cc(=O)n(C)c3ccc(C#N)nc23)[C@@H](C)CN1Cc1ccc(C(F)(F)F)cc1C(F)(F)F [Example 1197] | 9500 nM |  | 1600 nM | 3500 nM | 
25 | CC(c1ccc(OC(F)(F)F)c(F)c1)N1C[C@H](C)N(c2cc(=O)n(C)c3ccc(C#N)nc23)C[C@H]1C (single isomer, unassigned) [Example 1205] | 1700 nM | 8000 nM | 2700 nM |  | 
26 | C[C@@H]1CN(c2c(C#N)c(=O)n(C)c3ccc(C#N)nc23)CCN1Cc1ccc(Cl)cc1 [Example 1011] |  |  |  |  | IC50 ([1]; DGKα liposome (LIPGLO) assay): 1200 nM; EC50 [2, 7]: 20000 nM; IC50 ([3]; DGKζ liposome (LIPGLO) assay): 8300 nM
27 | COCc1ccc(C(C)N2C[C@H](C)N(c3cc(=O)n(C)c4ccc(C#N)nc34)C[C@H]2C)cc1 (stereo partly drawn) [Example 1265] | 49 nM | 120 nM | 48 nM |  | 
28 | C[C@@H]1CN(c2c(C#N)c(=O)n(C)c3ccc(C#N)nc23)[C@@H](C)CN1C(c1ccc(F)cc1)c1ccccn1 (single isomer, unassigned) [Example 843] |  |  |  |  | IC50 ([1]; DGKα liposome (LIPGLO) assay): 750 nM; EC50 [2, 4]: 3800 nM; IC50 ([3]; DGKζ liposome (LIPGLO) assay): 880 nM
29 | CC[C@H]1CN(C(c2ccc(F)cc2)c2ccc(C#N)cc2)[C@H](CC)CN1c1cc(=O)n(C)c2ccc(C#N)nc12 (stereo partly drawn) [Example 1036] | 300 nM | 200 nM | 520 nM |  | 
30 | C[C@@H]1CN(c2cc(=O)n(C)c3ccc(C#N)nc23)[C@@H](C)CN1C(c1ccc(F)cc1)C1CCCCO1 (single isomer, unassigned) [Example 358] | 9000 nM |  | 21000 nM | 1000 nM | 
31 | CC[C@@H]1CN(c2cc(=O)n(C)c3ccc(C#N)nc23)[C@@H](C)CN1C(C)c1ccc(OC(C)C)cc1 (single isomer, unassigned) [Example 1348] | 110 nM | 29 nM | 15 nM |  | 
32 | C[C@@H]1CN(c2cc(=O)n(C)c3ccc(C#N)nc23)[C@@H](C)CN1C(c1ccccc1)c1c(F)cccc1F (single isomer, unassigned) [Example 273, TFA] | 3800 nM |  | 15000 nM |  | EC50 ([2]; normalized to 3 μM reference compound with anti-CD3 plus anti-CD28 as 100% activation, TFA): 7100 nM
33 | COc1cc(F)c(C(C)N2C[C@H](C)N(c3cc(=O)n(C)c4ccc(C#N)nc34)C[C@H]2C)cc1F (stereo partly drawn) [Example 1244] | 660 nM |  | 30 nM | 120 nM | 
34 | CC[C@@H]1CN(c2cc(=O)n(C)c3ccc(C#N)nc23)[C@@H](C)CN1C(c1ccc(Cl)cc1)c1ccc(F)cn1 (stereo partly drawn) [Example 1111] | 200 nM | 310 nM | 78 nM |  | 
35 | CC[C@H]1CN(C(C)c2ccc(F)c(F)c2)[C@H](C)CN1c1cc(=O)n(C)c2ccc(C#N)nc12 (single isomer, unassigned) [Example 1140] | 1600 nM | 3400 nM | 990 nM |  | 
36 | COc1cc(F)c(C(C)N2C[C@H](C)N(c3cc(=O)n(C)c4ccc(C#N)nc34)C[C@H]2C)cc1OC (single isomer, unassigned) [Example 1247] | 24000 nM | 20000 nM | 7400 nM |  | 
37 | C[C@@H]1CN(c2cc(=O)n(C)c3ccc(C#N)nc23)[C@@H](C)CN1C1(c2ccc(F)cc2)CC1 [Example 1454, 8-((2S,5R)-4-(1-(4-fluorophenyl)cyclopropyl)-2,5-dimethylpiperazin-1-yl)-5-methyl-6-oxo-5,6-dihydro-1,5-naphthyridine-2-carbonitrile] | 1600 nM |  | 45000 nM | 10000 nM | 
38 | C[C@@H]1CN(c2cc(=O)n(C)c3ccc(C#N)nc23)[C@@H](C)CN1C(c1ccc(F)cc1)c1nc(C2CCOCC2)no1 (single isomer, unassigned) [Example 740] |  |  |  |  | IC50 ([1]; DGKα liposome (LIPGLO) assay): 610 nM; EC50 [2, 4]: 120 nM; IC50 ([3]; DGKζ liposome (LIPGLO) assay): 1300 nM
